These results are taken from US5688773A, “Method of selectively destroying neoplastic cells” (priority 1994, dated 1997).

One data set concerns C450-8 cells. Kind of data set: cells. As to conditions: Rattus norvegicus, read-out: CPA concentration reducing the number of cells by 50%. On the procedure: Cyclophosphamide Dose-Response Assay: For dose-response curves, cells were plated at a density of 2×10^5 cells/100 mm dish (Corning) in quintuplicate. Two days later CPA was added to final concentrations of 0-100 μM. Five days after plating, the monolayers were rinsed twice with Hank's buffered saline (GIBCO) to remove dead cells. Monolayers were dispersed using trypsin-EDTA (GIBCO), and cell numbers were determined using a Coulter counter (Coulter Electronics Inc.).

A further data set concerns CNEO-1 cells. Kind of data set: Cyclophosphamide dose-response assay. In kind it is cell-based. As to conditions: Rattus norvegicus, C6 glioma; up to 1 mM CPA; read-out: cells that survived incubation.
The next data set relates to C450-8 tumors. The experiment in a line: Cyclophosphamide sensitivity of subcutaneous tumors. The data set is classed as in vivo, nude mice. The following applies: day 17. On the procedure: (§1) Animal Studies: For animal injections, cultured cells in the proliferative stage were replated 24 hours before harvesting, then trypsinized, centrifuged at low speed, washed once by resuspension in Hank's buffered saline, centrifuged, and then resuspended in DMEM without serum at a density of 5×10^6 cells/mL. For subcutaneous injections, 10^6 C450-8 or C6 cells in 200 μl were injected into the flanks of athymic mice (NCY/Sed, nu/nu; MGH breeding colony; five animals per group). After 3 days, when tumors had reached a volume of about 0.01 cm^3 (as measured by external calipers) (Lee et al., Neurosurgery 26:598-605 (1990) and again at 14 days, 100 μl injections of either 20 mg CPA (Sigma) per mL saline or 100 μl saline were performed directly into the tumor mass. Animals were sacrificed at 17 days by euthanasia.

The subject of the next data set is C6 tumors. The description is as above. In kind it is in vivo, nude mice. As to conditions: day 17. The method, then: as §1
The subject of data set [1] is mixed culture of 9L and 9L-ZP cells. Kind of data set: Cytotoxicity toward mixed cultures. In kind it is cell-based, rat. The following applies: Rattus norvegicus, 120 h; equal numbers of 9L and 9L-ZP; 1 mM cyclophosphamide, 5 days; read-out: total cell population eradicated. On the procedure:
FIG. 28 is a bar graph depicting the cytotoxicity of oxazaphosphorines toward mixed cultures of 9L and 9L-ZP cells. Equal numbers of parental 9L cells were mixed with 9L-ZP cells (total initial cell number=1×10^5 /30 mm tissue culture dish). […] Cell numbers were determined 5 days after beginning drug treatment. Data (mean ±range of duplicates) are expressed as growth ratio (%) relative to drug-free controls.
To test for drug sensitivity, 1×10^5 cells were plated in 30-mm tissue culture plates (Falcon 3046) in duplicate. Drugs were added 18-24 hours after seeding. Cells were allowed to grow for times ranging up to 5 days after drug treatment, and the final cell number was then determined. Cells were rinsed with phosphate buffered saline or Hank's buffered saline, dispersed using trypsin-EDTA (GIBCO/BRL, Inc.), and then counted with a hemocytometer. Results are expressed as a growth ratio, i.e., the number of cells in plates containing drug as a percentage of the corresponding drug-free controls (mean±range of duplicate determinations).

For data set [2], the system named is parental 9L cells co-cultured with 9L-ZP cells. Kind of data set: Co-culture experiments with culture inserts. In kind it is cell-based, rat. As to conditions: 1 mM cyclophosphamide, 5 days, no cell contact. The method, then: Co-culture Experiments: Parental 9L cells were plated in the bottom wells of culture plates (Falcon 3502), and cytochrome P450 2B1-negative or cytochrome P450 2B1-positive cells were plated into 25 mm cell culture inserts (0.45 μm pore size, Falcon 3090). Culture media were removed 18-24 hours later by aspiration. Culture medium without drug (1.0 mL) was added to the bottom well, and 1.0 mL medium containing drug was added to the upper cell culture insert. Cell numbers were determined 5 days later, as described above.

In data set [3] the test system is cytochrome P450 2B1-positive cells (9L-ZP and L450-2). Kind of data set: cells. The following applies: Rattus norvegicus, 120 h.
The subject of the next data set is C6-P450 cells. Kind of data set: Cell proliferation assay.
Data set [4] relates to R450-2 (ΨCRE-derived clone, cytochrome P450 2B1). Kind of data set: Growth in the presence of 500 μM cyclophosphamide. The following applies: 500 μM CPA, four days.
A further data set deals with C6BAG cells. The experiment in a line: Ganciclovir sensitivity, cell proliferation assay. The data set is classed as cell-based, rat. The following applies: even at 1000 nM ganciclovir. On the procedure:
(§2) Ganciclovir Sensitivity Assays in Culture: To measure the sensitivity of isolated cells, cells were plated in 24-well plates at a density of 10^4 cells per well. The next day, medium was replaced with medium containing ganciclovir (Cytovene, Burroughs Wellcome) at varying concentrations (0-1 μM) in quadruplicate. Four days later, cells were harvested using trypsin and counted using a cell counter (Coulter Electronics Ltd., Luton, United Kingdom). Cell growth is expressed as the percentage of cells compared to the number of cells without treatment (100%).

The next data set concerns C6BAGWT cells. The experiment in a line: Ganciclovir sensitivity, cell proliferation assay. The data set is classed as cell-based, rat. The following applies: even at 1000 nM ganciclovir. On the procedure: as §2
For a further data set, the system named is C6BBAG cells. The experiment in a line: Ganciclovir sensitivity, cell proliferation assay. In kind it is cell-based, rat. The following applies: even at 1000 nM ganciclovir. The method, then:
as §2

Data set [5] relates to C6BU1 (HSV-TK negative) cells. Kind of data set: Ganciclovir sensitivity, cell proliferation assay. In kind it is cell-based, rat. The following applies: even at 1000 nM ganciclovir. The method, then: as §2
A further data set has as its system C6BWT cells. The experiment in a line: Ganciclovir sensitivity, cell proliferation assay. The data set is classed as cell-based, rat. As to conditions: even at 1000 nM ganciclovir. On the procedure:
as §2

The test system of data set [6] is C6BAG cells co-cultured with C6VIKWT cells. The experiment in a line: Simultaneous co-culture, ganciclovir sensitivity of recipient colonies. In kind it is cell-based, rat. As to conditions: 100 μM ganciclovir; donor:recipient ratios of 0.1 and 1. The method, then: For simultaneous co-culture experiments, 10^3 recipient cells, C6BAG or C6BBAG were plated together with 10^5 C6VIK or C6VIKWT donor cells, in duplicate. Controls were C6BAG or C6BBAG cells co-plated with C6BU1 cells at a similar ratio (1:100). After seven days, ganciclovir was added at varying concentrations (0 to 300 μM) and culture was processed as above. To assess the effects of the ratio of the donor cells to recipient cells, simultaneous co-culture experiments were also done varying the ratio of the donor cell, C6VIKWT, to the recipient cell, C6BAG, from 0.1 to 100.

The test system of another data set is C6VIK cells. As to conditions: subcutaneous, nude mice; cited from earlier work.
Setting [7] is: 2 mg CPA intratumorally day 3 and 14.

Consider `O=P1(N(CCCl)CCCl)NCCCO1` (centres unmarked) [cyclophosphamide], for which the figures for the IC50 (in the data set with C450-8 cells; in data set [3]) were 27 µM and ~70 µM, respectively. Also, in the data set on CNEO-1 cells, the viability at 1000 µM is ≥ 80%. The Tumor volume in the data set on C450-8 tumors (setting [7]) stood at 0.016±0.003 cm^3; in the data set on C6 tumors (setting [7]), 0.093±0.035 cm^3. For the same compound, the results for the “ratio of the mean volumes of CPA-treated to saline-treated tumors” value in the data set with C450-8 tumors and in the data set on C6 tumors were 0.035 and 0.124, respectively. In data set [1], the cytotoxicity at 1000 µM was ~80%. Also, the “Killing of both cell populations” value in data set [2] is “killed”. The Growth inhibition result in the data set on C6-P450 cells (0.5 mM CPA, 10 days) is “complete growth inhibition”. Also, the “Effect on cell proliferation” value in the data set on C6-P450 cells (0.5 mM, four days) was “complete inhibition of cell proliferation”. Besides, the “Cell proliferation assay, number of cells” value with C6-P450 cells (Table V panel A, 0.5 mM, four days) is given as 1.15±0.11 ×10^6. In addition, the Cell destruction result in [4] is given as “destroyed completely”.
`Nc1nc(O)c2ncn(COC(CO)CO)c2n1` [ganciclovir]: the Inhibition of growth result (in the data set with C6BAG cells; with C6BAGWT cells; in the data set on C6BBAG cells; in data set [5]; in the data set on C6BWT cells) was “No substantial inhibition of growth” in each case. In data set [6], the “ganciclovir sensitivity compared to C6BAG cells alone” value is given as “no significant difference”. The Tumor growth result in the data set on C6VIK cells is “inhibited tumor growth”.
